According to ChEMBL document CHEMBL4706629, “New derivatives of 4'-phenyl-2,2':6',2″-terpyridine as promising anticancer agents” (Eur J Med Chem, 2021):
Activity calls are given as the source filed them. No cut-off for these calls is given here.

Key:
[1] = Dark toxicity in human HeLa cells assessed as reduction in cell viability measured after 4 hrs by resazurin dye based fluorescence assay
U-251 = assay: Cytotoxicity against human U-251 cells assessed as reduction in cell viability measured after 72 hrs by MTS assay; assay type: functional, cell-based; settings: U-251, 72 h
HCT-116 = assay: Cytotoxicity against human HCT-116 cells assessed as reduction in cell viability measured after 72 hrs by MTS assay; assay type: functional, cell-based; settings: HCT-116, 72 h
PANC-1 [2] = assay: Cytotoxicity against human PANC-1 cells assessed as reduction in cell viability measured after 72 hrs by MTS assay; assay type: functional, cell-based; settings: PANC-1, 72 h
K562 = assay: Cytotoxicity against human K562 cells assessed as reduction in cell viability measured after 72 hrs by MTS assay; assay type: functional, cell-based; settings: K562, 72 h
MCF7 [3] = assay: Cytotoxicity against human MCF7 cells assessed as reduction in cell viability measured after 72 hrs by MTS assay; assay type: functional, cell-based; settings: MCF7, 72 h
NHDF = assay: Cytotoxicity against NHDF cells assessed as reduction in cell viability measured after 72 hrs by MTS assay; assay type: cell-based; settings: Homo sapiens
PANC-1 [4] = assay: Induction of autophagy in human PANC-1 cells assessed as increase in LC3 expression at 25 uM measured after 24 hrs by muse cell analyzer based fluorescence assay relative to control; assay type: functional
[5] = Drug localization in mitochondria of human MCF7 cells at 25 uM measured after 2 hrs by mitotracker orange dye based microscopic analysis; assay type: ADME; settings: mcf7, 2 h
[6] = Drug localization in lysosomes of human MCF7 cells at 25 uM measured after 2 hrs by lysotracker red DND-99 dye based microscopic analysis; assay type: ADME, subcellular, Lysosome; settings: mcf7, 2 h
MCF7 [7] = assay: Up regulation of p53 expression in human MCF7 cells at 5 uM measured after 24 hrs by Western blot analysis; assay type: functional, cell-based
PANC-1 [8] = assay: Up regulation of p53 expression in human PANC-1 cells at 5 uM measured after 24 hrs by Western blot analysis relative to control; assay type: functional, cell-based

Structure (SMILES) | IC50 at 4 h [1] | IC50 (U-251) | IC50 (HCT-116) | IC50 (PANC-1 [2]) | IC50 (K562) | IC50 (MCF7 [3]) | IC50 (NHDF) | fold change (FC) (PANC-1 [4]) | Drug uptake [5] | Drug uptake [6] | Activity (MCF7 [7]) | Activity (PANC-1 [8])
COc1cc(-c2cccnc2)nc(-c2ccccn2)c1 | 40.9 µM | – | – | – | – | – | – | – | – | – | – | –
CCCCCCCCCCn1cc(-c2ccc(-c3cc(-c4nccs4)nc(-c4nccs4)c3)cc2)nn1 | – | > 25 µM | > 25 µM | > 25 µM | > 25 µM | > 25 µM | – | – | – | – | – | –
c1ccc(-c2cc(-c3ccc(-n4cc(-c5ccc(-c6cccs6)s5)nn4)cc3)cc(-c3ccccn3)n2)nc1 | – | 3.59 µM | 0.822 µM | 2.22 µM | 1.95 µM | 1.79 µM | > 25 µM | – | – | – | – | –
c1ccc(-c2cccc(-c3cccnc3)n2)nc1 | 35.1 µM | – | – | – | – | – | – | – | – | – | – | –
Clc1cc(-c2cccnc2)nc(-c2ccccn2)c1 | 26.5 µM | – | – | – | – | – | – | – | – | – | – | –
CCCCCCCCn1c2ccccc2c2cc(-c3cn(-c4ccc(-c5cc(-c6ccccn6)nc(-c6ccccn6)c5)cc4)nn3)ccc21 | – | 10.1 µM | 6.26 µM | 3.59 µM | 5.5 µM | 9.96 µM | > 25 µM | – | – | – | – | –
CCCCCOc1ccc(-c2cn(-c3ccc(-c4cc(-c5ccccn5)nc(-c5ccccn5)c4)cc3)nn2)cc1 | – | 0.609 µM | 0.491 µM | 0.374 µM | 1.79 µM | 0.871 µM | > 25 µM | – | – | – | – | –
CCCCCCCCCCCCc1cn(-c2ccc(-c3cc(-c4ccccn4)nc(-c4ccccn4)c3)cc2)nn1 | – | 20.4 µM | 13.5 µM | > 25 µM | 19.8 µM | 11.2 µM | 9.07 µM | – | – | – | – | –
Cc1ccc(NC(=O)c2ccc(CN3CCN(C)CC3)cc2)cc1Nc1nccc(-c2cccnc2)n1 [IMATINIB] | – | – | – | – | – | – | – | 2 | – | – | – | –
CC1(C)c2ccccc2-c2ccc(-c3cn(-c4ccc(-c5cc(-c6ccccn6)nc(-c6ccccn6)c5)cc4)nn3)cc21 | – | 1.88 µM | 1.29 µM | 1.87 µM | 0.625 µM | 1.07 µM | > 25 µM | – | Active | Active | – | –
c1ccc(-c2cc(-c3ccc(-n4cc(-c5ccc6sc7ccccc7c6c5)nn4)cc3)cc(-c3ccccn3)n2)nc1 | – | 2.39 µM | 0.918 µM | 0.784 µM | 7.38 µM | 1.73 µM | > 25 µM | – | – | – | – | –
Oc1cn(-c2ccc(-c3cc(-c4ccccn4)nc(-c4ccccn4)c3)cc2)nn1 | – | 1.4 µM | 0.782 µM | 0.689 µM | 1.31 µM | 0.592 µM | 11.8 µM | – | – | – | – | –
N#Cc1ccc(-c2cn(-c3ccc(-c4cc(-c5ccccn5)nc(-c5ccccn5)c4)cc3)nn2)cc1 | – | 1.83 µM | 1.31 µM | 0.92 µM | 1.57 µM | 0.372 µM | 2.03 µM | – | – | – | – | –
CCCCCCCCCCn1cc(-c2ccc(-c3cc(-c4cnccn4)nc(-c4cnccn4)c3)cc2)nn1 | – | > 25 µM | > 25 µM | > 25 µM | > 25 µM | > 25 µM | – | – | – | – | – | –
O=C(O)c1cc(-c2cccnc2)nc(-c2ccccn2)c1 | 50.5 µM | – | – | – | – | – | – | – | – | – | – | –
CN(C)c1cc(-c2cccnc2)nc(-c2ccccn2)c1 | 19.6 µM | – | – | – | – | – | – | – | – | – | – | –
c1ccc(-c2cn(-c3ccc(-c4cc(-c5ccccn5)nc(-c5ccccn5)c4)cc3)nn2)cc1 | – | 0.955 µM | 0.249 µM | 0.287 µM | 0.741 µM | 0.477 µM | > 25 µM | – | – | – | – | –
COc1cccc2c1C(=O)c1c(O)c3c(c(O)c1C2=O)C[C@@](O)(C(=O)CO)C[C@@H]3O[C@H]1C[C@H](N)[C@H](O)[C@H](C)O1 [DOXORUBICIN] | – | 0.052 µM | – | – | 0.019 µM | 0.405 µM | 0.137 µM | – | – | – | Active | Active
